Results taken from patent US20260217711A1, “TRIAZOLOPYRIDINYL ETHER LINKED COMPOUNDS AS KINASE INHIBITORS” (Bristol-Myers Squibb Company, priority 2023, published 2026).
Like-named read-outs stand apart in the source and are kept apart here.

Columns and labels:
[1] = molecular target: T1, MDR1 P-glycoprotein (P-gp) (Homo sapiens, UniProt P08183); experiment: Transporter assay, bi-directional transport, MDCK-MDR1 cells; type: in vitro ADME; conditions: basolateral to apical / apical to basolateral, >2 = substrate; for efflux ratio at 2 h, 0.1 uM: human, MDCK-MDR1, 0.1 uM, read-out: PGP (efflux ratio); for PGP (efflux ratio): 0.1 uM, 2 hours
T1 construct: host or cells: MDCK (MDCK-MDR1)
Protocol: (§1) Compounds were assessed as substrates of MDR1 P-glycoprotein (P-gp) and mouse Breast Cancer Resistance Protein (mBcrp) at 0.1 uM, for 2 hours, in bi-directional transport assays using recombinant MDCK cell lines as described previously (Feng et al. Drug Metabolism and Disposition 2008, Vol. 36:268-275). MDCK-MDR1 and MDCK-mBcrp cells were acquired from the National Institutes of Health (Bethesda, MID) and the Netherlands Cancer Institute respectively, and used under license agreement. Data are expressed as efflux ratios, where transport across the cell monolayer in the basolateral to apical direction is divided by transport in the apical to basolateral direction. Efflux ratios >2 indicate the test compound is a substrate of the transporter tested.

[2] = molecular target: T2, mouse Breast Cancer Resistance Protein (mBcrp) (Mus musculus, UniProt Q7TMS5); experiment: Transporter assay, bi-directional transport, MDCK-mBcrp cells; type: in vitro ADME; conditions: basolateral to apical / apical to basolateral, >2 = substrate; for efflux ratio at 2 h, 0.1 uM: mouse, read-out: BCRP (efflux ratio); for BCRP (efflux ratio): 0.1 uM, 2 hours
T2 construct: host or cells: MDCK (MDCK-mBcrp)
T2 sequence (Q7TMS5 1-657): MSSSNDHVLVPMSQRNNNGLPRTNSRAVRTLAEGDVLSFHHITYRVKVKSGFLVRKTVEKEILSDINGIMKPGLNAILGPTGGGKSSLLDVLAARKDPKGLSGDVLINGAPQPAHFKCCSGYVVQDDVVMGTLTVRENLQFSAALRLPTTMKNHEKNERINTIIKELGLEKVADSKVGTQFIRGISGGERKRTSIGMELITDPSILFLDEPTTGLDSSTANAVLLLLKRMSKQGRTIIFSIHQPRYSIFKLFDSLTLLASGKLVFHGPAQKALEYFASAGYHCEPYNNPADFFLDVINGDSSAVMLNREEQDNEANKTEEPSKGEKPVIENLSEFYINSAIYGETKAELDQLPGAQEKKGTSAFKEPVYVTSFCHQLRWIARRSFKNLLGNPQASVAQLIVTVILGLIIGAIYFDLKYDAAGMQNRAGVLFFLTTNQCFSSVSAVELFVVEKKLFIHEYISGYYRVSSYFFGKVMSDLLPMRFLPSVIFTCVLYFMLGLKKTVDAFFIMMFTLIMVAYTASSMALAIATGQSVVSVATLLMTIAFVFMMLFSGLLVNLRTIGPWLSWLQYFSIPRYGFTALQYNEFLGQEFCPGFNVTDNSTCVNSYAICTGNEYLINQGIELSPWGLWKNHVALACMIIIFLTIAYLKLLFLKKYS
Protocol: as §1

hWB = experiment: hWB; type: cell-based; conditions: printed as "hWB" value in the pMLKL IC50 column; no method given
[3] = test system: MLKL phosphorylation (pMLKL) in HT29-L23 cells; experiment: MLKL Phosphorylation High-Content Assay; type: cell-based; conditions: 6 h, necroptosis induced with human TNFα, SMAC mimetic and Z-VAD, read-out: LE pMLKL HC IC50
Procedure, shortened: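 HT29-L23 cells incubated 6 h at 37° C before detection of phospho-MLKL by immunostaining with anti-phospho-MLKL antibody (1:1000 in PBS/0.1% BSA, overnight at 4° C). Readout by high-content imaging with compartmental image analysis.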

T1 sequence (P08183 whole entry): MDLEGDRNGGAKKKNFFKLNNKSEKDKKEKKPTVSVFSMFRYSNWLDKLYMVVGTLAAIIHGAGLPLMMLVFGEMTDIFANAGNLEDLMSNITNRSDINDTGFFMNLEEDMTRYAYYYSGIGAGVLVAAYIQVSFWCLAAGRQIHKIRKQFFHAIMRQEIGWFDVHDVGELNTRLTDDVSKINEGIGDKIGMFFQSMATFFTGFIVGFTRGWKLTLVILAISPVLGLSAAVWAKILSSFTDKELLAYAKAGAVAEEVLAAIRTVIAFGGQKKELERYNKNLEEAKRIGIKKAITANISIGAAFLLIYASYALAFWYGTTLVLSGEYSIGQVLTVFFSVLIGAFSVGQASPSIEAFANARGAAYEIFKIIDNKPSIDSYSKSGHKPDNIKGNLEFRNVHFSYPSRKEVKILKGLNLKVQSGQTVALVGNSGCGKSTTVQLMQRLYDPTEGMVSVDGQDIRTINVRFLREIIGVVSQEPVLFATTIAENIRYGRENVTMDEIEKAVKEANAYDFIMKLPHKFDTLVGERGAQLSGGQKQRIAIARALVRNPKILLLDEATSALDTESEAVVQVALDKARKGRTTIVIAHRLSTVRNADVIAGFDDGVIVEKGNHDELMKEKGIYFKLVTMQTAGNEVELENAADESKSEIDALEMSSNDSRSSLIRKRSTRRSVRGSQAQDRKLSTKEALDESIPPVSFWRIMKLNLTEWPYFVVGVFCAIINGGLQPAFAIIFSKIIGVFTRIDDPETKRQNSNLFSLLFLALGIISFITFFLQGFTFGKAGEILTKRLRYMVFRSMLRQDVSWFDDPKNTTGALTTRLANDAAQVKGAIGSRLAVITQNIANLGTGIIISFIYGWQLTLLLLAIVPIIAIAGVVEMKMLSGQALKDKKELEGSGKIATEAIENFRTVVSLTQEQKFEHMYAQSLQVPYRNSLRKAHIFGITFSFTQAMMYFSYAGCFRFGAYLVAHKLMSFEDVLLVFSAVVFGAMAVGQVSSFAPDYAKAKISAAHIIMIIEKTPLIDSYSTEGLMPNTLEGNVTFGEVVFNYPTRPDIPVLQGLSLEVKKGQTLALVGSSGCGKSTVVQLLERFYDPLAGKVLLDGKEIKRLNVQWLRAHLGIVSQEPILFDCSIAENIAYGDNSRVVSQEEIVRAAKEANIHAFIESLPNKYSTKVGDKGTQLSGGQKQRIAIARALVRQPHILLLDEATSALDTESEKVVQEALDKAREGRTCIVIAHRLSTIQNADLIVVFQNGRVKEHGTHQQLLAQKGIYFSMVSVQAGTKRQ

efflux ratio at 2 h, 0.1 uM [1] | efflux ratio at 2 h, 0.1 uM [2] | PGP (efflux ratio) [1] | BCRP (efflux ratio) [2] | Structure (SMILES) | IC50 (hWB) | IC50 ([3]; Homo sapiens) | IC50 [3]
1.6 | 2.5 | – | – | CC(O)(c1ccc(F)cc1)C(F)(F)CCOc1c(F)cc(F)c(-c2ccn3nc(N)nc3c2)c1F (single isomer, unassigned) [Example 29, 5-(3-(2-amino-[1,2,4]triazolo[1,5-a]pyridin-7-yl)-2,4,6-trifluorophenoxy)-3,3-difluoro-2-(4-fluorophenyl)pentan-2-ol] | 4 nM | – | –
2.5 | 3 | – | – | CC(O)(c1ccc(F)cc1)C(F)(F)CCOc1c(F)c(F)cc(-c2ccn3nc(N)nc3c2)c1F (single isomer, unassigned) [Example 30, 5-(3-(2-amino-[1,2,4]triazolo[1,5-a]pyridin-7-yl)-2,5,6-trifluorophenoxy)-3,3-difluoro-2-(4-fluorophenyl)pentan-2-ol] | 8 nM | – | –
– | – | – | – | CC(O)(c1ccc(F)cn1)C(F)(F)CCOc1c(F)ccc(-c2ccn3nc(N)nc3c2)c1F (single isomer, unassigned) [Example 28, 5-(3-(2-amino-[1,2,4]triazolo[1,5-a]pyridin-7-yl)-2,6-difluorophenoxy)-3,3-difluoro-2-(5-fluoropyridin-2-yl)pentan-2-ol] | 82 nM | – | –
– | – | 1.2 | 3.4 | CC(O)(c1ccc(F)cc1)C(F)(F)CCOc1cccc(-c2ccn3nc(N)nc3c2)c1F (single isomer, unassigned) [Example 3, 5-(3-(2-amino-[1,2,4]triazolo[1,5-a]pyridin-7-yl)-2-fluorophenoxy)-3,3-difluoro-2-(4-fluorophenyl)pentan-2-ol] | – | – | 0.1 nM
– | – | 1.5 | 1.7 | CC(O)(c1ccc(F)cc1)C(F)(F)CCOc1c(Cl)ccc(-c2ccn3nc(N)nc3c2)c1F (single isomer, unassigned) [Example 4, 5-(3-(2-amino-[1,2,4]triazolo[1,5-a]pyridin-7-yl)-6-chloro-2-fluorophenoxy)-3,3-difluoro-2-(4-fluorophenyl)pentan-2-ol] | – | – | 0.5 nM
5.3 | 1.4 | – | – | CC(O)(c1ccc(F)cn1)C(F)(F)CCOc1c(Cl)ccc(-c2ccn3nc(N)nc3c2)c1F (single isomer, unassigned) [Example 31, 5-(3-(2-amino-[1,2,4]triazolo[1,5-a]pyridin-7-yl)-6-chloro-2-fluorophenoxy)-3,3-difluoro-2-(5-fluoropyridin-2-yl)pentan-2-ol] | – | – | 2 nM
1.7 | 4.8 | – | – | CC(O)(c1ccccc1)C(F)(F)CCOc1c(F)ccc(-c2ccn3nc(N)nc3c2)c1F (single isomer, unassigned) [Example 40, 5-(3-(2-amino-[1,2,4]triazolo[1,5-a]pyridin-7-yl)-2,6-difluorophenoxy)-3,3-difluoro-2-phenylpentan-2-ol] | – | – | 0.6 nM
1.6 | 2.4 | – | – | C[C@@](O)(c1ccc(F)cc1)C(F)(F)CCOc1c(F)ccc(-c2ccn3nc(N)nc3c2)c1F (single isomer, unassigned) [Example 50, 5-(3-(2-amino-[1,2,4]triazolo[1,5-a]pyridin-7-yl)-2,6-difluorophenoxy)-3,3-difluoro-2-(4-fluorophenyl)pentan-2-ol] | – | 0.4 nM | –

Structure (SMILES) | efflux ratio at 2 h, 0.1 uM [1] | efflux ratio at 2 h, 0.1 uM [2] | PGP (efflux ratio) [1] | BCRP (efflux ratio) [2] | IC50 (hWB) | IC50 ([3]; Homo sapiens) | IC50 [3]
CC(O)(c1ccc(F)cn1)C(F)(F)CCOc1c(F)ccc(-c2ccn3nc(N)nc3c2)c1F (single isomer, unassigned) [Example 27, 5-(3-(2-amino-[1,2,4]triazolo[1,5-a]pyridin-7-yl)-2,6-difluorophenoxy)-3,3-difluoro-2-(5-fluoropyridin-2-yl)pentan-2-ol] | 1.1 | 1.6 | – | – | 64 nM | – | –
CC(O)(c1ccccc1)C(F)(F)CCOc1c(F)ccc(-c2ccn3nc(N)nc3c2F)c1F (single isomer, unassigned) [Example 38, 5-(3-(2-amino-8-fluoro-[1,2,4]triazolo[1,5-a]pyridin-7-yl)-2,6-difluorophenoxy)-3,3-difluoro-2-phenylpentan-2-ol] | 2.1 | 5.1 | – | – | – | 0.3 nM | –
